For 24 compounds, Kd results are on record in patent US20230312542A1, “HYDROXYPYRROLIDINE DERIVATIVE AND MEDICINAL APPLICATION THEREOF” (MITSUBISHI TANABE PHARMA CORPORATION, priority 2020, published 2023).

Each structure is given as a SMILES string.

Chain of VHL (co-expressed with Elongin B and Elongin C) (P40337 whole entry, looked up): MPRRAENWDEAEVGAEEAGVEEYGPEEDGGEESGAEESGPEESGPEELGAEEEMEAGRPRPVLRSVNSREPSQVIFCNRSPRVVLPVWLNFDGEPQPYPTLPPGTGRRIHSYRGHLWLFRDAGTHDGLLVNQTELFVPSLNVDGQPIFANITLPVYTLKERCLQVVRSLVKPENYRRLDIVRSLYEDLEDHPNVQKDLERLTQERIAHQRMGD
Chain of VHL (co-expressed with Elongin B and Elongin C) (Q15370 whole entry partner, looked up): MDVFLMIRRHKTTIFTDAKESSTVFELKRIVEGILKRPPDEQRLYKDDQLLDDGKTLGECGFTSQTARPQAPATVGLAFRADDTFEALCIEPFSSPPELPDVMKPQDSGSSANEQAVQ
Chain of VHL (co-expressed with Elongin B and Elongin C) (Q15369 whole entry partner, looked up): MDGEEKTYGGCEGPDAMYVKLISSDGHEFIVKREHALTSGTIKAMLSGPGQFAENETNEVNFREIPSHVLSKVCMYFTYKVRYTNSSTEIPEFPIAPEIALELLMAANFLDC

The first experiment concerns the target VHL (co-expressed with Elongin B and Elongin C) (Homo sapiens (Human), UniProt P40337). The experiment can be described thus: Measurement of intermolecular interactions using surface plasmon resonance (Biacore T200), Kd value for VHL. Type of experiment: binding.
Conditions: not given
From the text:
As the device, Biacore T200 (manufactured by GE Healthcare) was used. VHL was obtained by co-expressing Elongin B and Elongin C with a Twin-Strep-tag added to the N-terminus. As the sensor chip, Sensor chip CM5 (manufactured by GE Healthcare) was used. First, Strep-Tactin XT (manufactured by GE Healthcare) was immobilized on the sensor chip by amine coupling. Thereafter, VHL was immobilized using the affinity of Strep-Tactin XT and Twin-Strep-tag, and VHL was further immobilized on the sensor chip by amine coupling.
As the running buffer, a mixed solution of 20 mM HEPES pH 7.5, 150 mM NaCl, 1 mM TCEP, 0.005% Tween 20, and 2% DMSO was used. […] The Contact time and the Dissociation time were determined according to the properties of the compounds. For many compounds, 60 seconds and 120 seconds were respectively used.
As for `COc1cc(C(C(=O)N2C[C@H](O)C[C@H]2c2nc(C(=O)N3CCC(Nc4ccccc4)CC3)c[nH]2)C(C)C)on1` (stereo partly drawn) [Example 150, 1-[(2S,4R)-2-[4-(4-anilinopiperidine-1-carbonyl)-1H-imidazol-2-yl]-4-hydroxypyrrolidin-1-yl]-2-(3-methoxyisoxazol-5-yl)-3-methylbutan-1-one], the Kd fell in the range of 1 to 10 µM.

The experiment is the same for the next values; noted with them: SPR, immobilized VHL, 25° C.; read-out: Kd.
Consider `CC(=O)N[C@H](C(=O)N1C[C@H](O)C[C@H]1c1ncc(Cc2cccc(Br)c2)[nH]1)C(C)(C)C` [Example 90, N-[(2S)-1-[(2S,4R)-2-[5-[(3-bromophenyl)methyl]-1H-imidazol-2-yl]-4-hydroxypyrrolidin-1-yl]-3,3-dimethyl-1-oxobutan-2-yl]acetamide], for which the Kd was 1 to 10 µM.
Still for that read-out and setting: then `COc1cccc(-c2cnc([C@@H]3C[C@@H](O)CN3C(=O)C(c3cc(OC)no3)C(C)C)[nH]2)c1` (stereo partly drawn) [Example 61, 1-[(2S,4R)-4-hydroxy-2-[5-(3-methoxyphenyl)-1H-imidazol-2-yl]pyrrolidin-1-yl]-2-(3-methoxy-1,2-oxazol-5-yl)-3-methylbutan-1-one], with 1 to 10 µM.
On the same count and under the same terms, then `CNC(=O)c1ccc(-c2cnc([C@@H]3C[C@@H](O)CN3C(=O)C(c3cc(OC)no3)C(C)C)[nH]2)cc1` (stereo partly drawn) [Example 97, 4-[2-[(2S,4R)-4-hydroxy-1-[2-(3-methoxy-1,2-oxazol-5-yl)-3-methylbutanoyl]pyrrolidin-2-yl]-1H-imidazol-5-yl]-N-methylbenzamide], with 1 to 10 µM; and `COc1cc(C(C(=O)N2C[C@H](O)C[C@H]2c2nc(C(=O)N(C)Cc3ccc(-c4scnc4C)cc3)c[nH]2)C(C)C)on1` (stereo partly drawn) [Example 54, 2-[(2S,4R)-4-hydroxy-1-[2-(3-methoxy-1,2-oxazol-5-yl)-3-methylbutanoyl]pyrrolidin-2-yl]-N-methyl-N-[[4-(4-methyl-1,3-thiazol-5-yl)phenyl]methyl]-1H-imidazole-4-carboxamide], with under 1 µM; and `CC(=O)N[C@H](C(=O)N1C[C@H](O)C[C@H]1c1nc(C(=O)N(C)Cc2ccccc2F)c[nH]1)C(C)(C)C` [Example 17, 2-[(2S,4R)-1-[(2S)-2-acetamido-3,3-dimethylbutanoyl]-4-hydroxypyrrolidin-2-yl]-N-[(2-fluorophenyl)methyl]-N-methyl-1H-imidazole-4-carboxamide], with 1 to 10 µM.
Same read-out and setting: then `COc1cc(C(C(=O)N2C[C@H](O)C[C@H]2c2nccn2CC(=O)Nc2ccccc2)C(C)C)on1` (stereo partly drawn) [Example 96, 2-[2-[(2S,4R)-4-hydroxy-1-[2-(3-methoxy-1,2-oxazol-5-yl)-3-methylbutanoyl]pyrrolidin-2-yl]imidazol-1-yl]-N-phenylacetamide], with 10 to 50 µM; and `COc1cc(C(C(=O)N2C[C@H](O)C[C@H]2c2nc(C(=O)N3CCCC(C(=O)Nc4ccccc4)C3)c[nH]2)C(C)C)on1` (stereo partly drawn) [Example 148, 1-[2-[(2S,4R)-4-hydroxy-1-[2-(3-methoxyisoxazol-5-yl)-3-methylbutanoyl]pyrrolidin-2-yl]-1H-imidazole-4-carbonyl]-N-phenylpiperidine-3-carboxamide], with 1 to 10 µM.
For the compound `COc1cc(C(C(=O)N2C[C@H](O)C[C@H]2c2nc(C(=O)N3CCC(c4ccc(C)cn4)CC3)c[nH]2)C(C)C)on1` (stereo partly drawn) [Example 144, 1-[(2S,4R)-4-hydroxy-2-[4-[4-(5-methyl-2-pyridyl)piperidine-1-carbonyl]-1H-imidazol-2-yl]pyrrolidin-1-yl]-2-(3-methoxyisoxazol-5-yl)-3-methylbutan-1-one], the Kd fell in the range of 1 to 10 µM.
Still for that read-out and setting: then `COc1cc(C(C(=O)N2C[C@H](O)C[C@H]2c2nc(C(=O)N(Cc3ccc(-c4scnc4C)cc3)CC(F)(F)F)c[nH]2)C(C)C)on1` (stereo partly drawn) [Example 40, 2-[(2S,4R)-4-hydroxy-1-[2-(3-methoxy-1,2-oxazol-5-yl)-3-methylbutanoyl]pyrrolidin-2-yl]-N-[[4-(4-methyl-1,3-thiazol-5-yl)phenyl]methyl]-N-(22,2-trifluoroethyl)-1H-imidazole-4-carboxamide], with 1 to 10 µM; and `CC(=O)N[C@H](C(=O)N1C[C@H](O)C[C@H]1c1nc(C(=O)N(C)Cc2ccc(Cl)cc2)c[nH]1)C(C)(C)C` [Example 16, 2-[(2S,4R)-1-[(2S)-2-acetamido-3,3-dimethylbutanoyl]-4-hydroxypyrrolidin-2-yl)-N-[(4-chlorophenyl)methyl]-N-methyl-1H-imidazole-4-carboxamide], with 1 to 10 µM; and `COc1cc(C(C(=O)N2C[C@H](O)C[C@H]2c2nc(C(=O)N(C)Cc3ccc(-c4ccc(C)nc4)cc3)c[nH]2)C(C)C)on1` (stereo partly drawn) [Example 154, 2-[(2S,4R)-4-hydroxy-1-[2-(3-methoxyisoxazol-5-yl)-3-methylbutanoyl]pyrrolidin-2-yl]-N-methyl-N-[[4-(6-methyl-3-pyridyl)phenyl]methyl]-1H-imidazole-4-carboxamide], with under 1 µM.
The same measure, in the same setting: then `Cc1cc(-c2cnn(C(C(=O)N3C[C@H](O)C[C@H]3c3ncc[nH]3)C(C)C)c2)on1` (stereo partly drawn) [Example 160, 1-[(2S,4R)-4-hydroxy-2-(1H-imidazol-2-yl)pyrrolidin-1-yl]-3-methyl-2-[4-(3-methylisoxazol-5-yl)pyrazol-1-yl]butan-1-one], with 10 to 50 µM; and `CC(=O)N[C@H](C(=O)N1C[C@H](O)C[C@H]1c1nc(C(=O)N(C)Cc2ccc(-c3scnc3C)cc2)c[nH]1)C(C)(C)C` [Example 35, 2-[(2S,4R)-1-[(2S)-2-acetamido-3,3-dimethylbutanoyl]-4-hydroxypyrrolidin-2-yl]-N-methyl-N-[[4-(4-methyl-1,3-thiazol-5-yl)phenyl]methyl]-1H-imidazole-4-carboxamide], with 1 to 10 µM.
Same read-out and setting: the figure for `CC(=O)N[C@H](C(=O)N1C[C@H](O)C[C@H]1c1nc(C(=O)N(C)Cc2cccc(F)c2)c[nH]1)C(C)(C)C` [Example 18, 2-[(2S,4R)-1-[(2S)-2-acetamido-3,3-dimethylbutanoyl]-4-hydroxypyrrolidin-2-yl]-N-[(3-fluorophenyl)methyl]-N-methyl-1H-imidazole-4-carboxamide] is 1 to 10 µM.
Take `CC(=O)N[C@H](C(=O)N1C[C@H](O)C[C@H]1c1nc(C(=O)N(C)Cc2ccccc2)c[nH]1)C(C)(C)C` [Example 51, 2-[(2S,4R)-1-[(2S)-2-acetamido-3,3-dimethylbutanoyl]-4-hydroxypyrrolidin-2-yl]-N-benzyl-N-methyl-1H-imidazole-4-carboxamide]: the Kd was in the range of 1 to 10 µM.
The same measure, in the same setting: then `CC(=O)N[C@H](C(=O)N1C[C@H](O)C[C@H]1c1nc(C(=O)N(C)Cc2ccncc2)c[nH]1)C(C)(C)C` [Example 49, 2-[(2S,4R)-1-[(2S)-2-acetamido-3,3-dimethylbutanoyl]-4-hydroxypyrrolidin-2-yl]-N-methyl-N-(pyridin-4-ylmethyl)-1H-imidazole-4-carboxamide], with 1 to 10 µM.
Still for that read-out and setting: the figure for `CC(=O)N[C@H](C(=O)N1C[C@H](O)C[C@H]1c1ncc(Cc2ccc(-c3scnc3C)cc2)[nH]1)C(C)(C)C` [Example 93, N-[(1S)-1-[(2S,4R)-4-hydroxy-2-[5-[[4-(4-methyl-1,3-thiazol-5-yl)phenyl]methyl]-1H-imidazol-2-yl]pyrrolidin-1-yl]-3,3-dimethyl-1-oxobutan-2-yl]acetamide] is 1 to 10 µM; for `COc1cccc(CN(C)C(=O)c2c[nH]c([C@@H]3C[C@@H](O)CN3C(=O)[C@@H](NC(C)=O)C(C)(C)C)n2)c1` [Example 24, 2-[(2S,4R)-1-[(2S)-2-acetamido-3,3-dimethylbutanoyl]-4-hydroxypyrrolidin-2-yl]-N-[(3-methoxyphenyl)methyl]-N-methyl-1H-imidazole-4-carboxamide] it is 1 to 10 µM.
Same read-out and setting: then `COc1cc(C(C(=O)N2C[C@H](O)C[C@H]2c2nc(C(=O)N(C)[C@H](C)C(=O)NCc3ccccc3)c[nH]2)C(C)C)on1` (stereo partly drawn) [Example 159, N-[(1R)-2-(benzylamino)-1-methyl-2-oxo-ethyl]-2-[(2S,4R)-4-hydroxy-1-[2-(3-methoxyisoxazol-5-yl)-3-methylbutanoyl]pyrrolidin-2-yl]-N-methyl-1H-imidazole-4-carboxamide], with under 1 µM.
In the case of `COc1cc(C(C(=O)N2C[C@H](O)C[C@H]2c2nc(C(=O)N3CCC(c4ccccc4)C3)c[nH]2)C(C)C)on1` (stereo partly drawn) [Example 111, 1-[(2S,4R)-4-hydroxy-2-[4-(3-phenylpyrrolidine-1-carbonyl)-1H-imidazol-2-yl]pyrrolidin-1-yl]-2-(3-methoxyisoxazol-5-yl)-3-methylbutan-1-one], the Kd is under 1 µM.
The same measure, in the same setting: then `CC(=O)N[C@H](C(=O)N1C[C@H](O)C[C@H]1c1nc(C(=O)N(C)Cc2cccc(Cl)c2)c[nH]1)C(C)(C)C` [Example 15, 2-[(2S,4R)-1-[(2S)-2-acetamido-3,3-dimethylbutanoyl]-4-hydroxypyrrolidin-2-yl]-N-[(3-chlorophenyl)methyl]-N-methyl-1H-imidazole-4-carboxamide], with 1 to 10 µM; and `COc1cc(C(C(=O)N2C[C@H](O)C[C@H]2c2nc(C(=O)N3CCN(c4ccccc4)CC3)c[nH]2)C(C)C)on1` (stereo partly drawn) [Example 140, 1-[(2S,4R)-4-hydroxy-2-[4-(4-phenylpiperazine-1-carbonyl)-1H-imidazol-2-yl]pyrrolidin-1-yl]-2-(3-methoxyisoxazol-5-yl)-3-methylbutan-1-one], with 1 to 10 µM; and `COc1cc(C(C(=O)N2C[C@H](O)C[C@H]2c2nccn2Cc2cccc(Oc3ccccc3)c2)C(C)C)on1` (stereo partly drawn) [Example 65, 1-[(2S,4R)-4-hydroxy-2-[1-[(3-phenoxyphenyl)methyl]imidazol-2-yl]pyrrolidin-1-yl]-2-(3-methoxy-1,2-oxazol-5-yl)-3-methylbutan-1-one], with 10 to 50 µM.
